Experimental data published in PMC10447463, “Data-mining unveils structure–property–activity correlation of viral infectivity enhancing self-assembling peptides” (Nature Communications, 2023).
Several values for one entry are separate records, joined by “and”; a condition that tells them apart may be missing. Equal values may be shown once. Read-outs that look alike come from different tables or passages of the source.

Assays:
[1] = Zeta-potential measurement; assay type: physicochemical; conditions: for Zeta-pot. / mV: zeta potential of peptide, Fig S15 source data
How it was run: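 In this measurement, peptides aggregated for a day at RT in phosphate-buffered saline (pH 7.4, 1 mg/mL) are diluted into 1 mM potassium chloride, and the electrophoretic mobility is translated into zeta potential by Smoluchowski's relation.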

[2] = Turbidity, derived count rate of scattered light; assay type: physicochemical; conditions: for Log Count Rate: log of derived count rate; for Count Rate: turbidity
How it was run: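 Samples: 1 mg/mL in PBS pH 7.4 (from DMSO), 1 d at RT, then diluted in 1 mM KCl immediately before measurement. Triplicates, two independent runs averaged.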

[3] = system: HIV-1 infection of TZM-bl cells; assay: HIV-1 infectivity enhancement assay, β-galactosidase luminescence; assay type: cell-based; conditions: for Log10 Inf. rel. to EF-C: log10 of HIV-1 infection of TZM-bl cells relative to EF-C, Fig S15 source data, asymmetric std dev errors; for Rel-to EFC / n-fold to virus: Fig S8 panels B, D
[4] = β-sheet content by ATR-FT-IR; assay type: physicochemical
How it was run: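 Spectra: 64 scans, 2 cm^-1, lyophilized PNF (1 mg/mL source). CR = 100 − 100 × filtrate/original fluorescamine signal; triplicate, ± SD.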

[5] = category derived from the zeta potential
[6] = category 1 or 0 derived from the count rate, key not given
[7] = derived count rate of scattered light
[8] = derived count rate of scattered light, mean, std deviation in next column
[9] = derived count rate of scattered light, mean, std deviation in separate column
[10] = Feb2021, Log10 of infectivity relative to EF-C
[11] = Feb2021, figures match the 1.3 µM column
[12] = Feb2021, infectivity enhancement relative to EF-C
[13] = Feb2021, infectivity relative to virus only
[14] = Feb2021, n-fold infectivity relative to EF-C
[15] = Feb2021 run, infectivity n-fold relative to virus alone
[16] = Feb2021 run, log10 of infectivity relative to EF-C
[17] = Feb2021 run, n-fold infectivity relative to EF-C
[18] = infectivity class (low / medium / high) of each library peptide, main list in c1-c6, same classes repeated in sub-lists of sequences containing the hydrophobicity/charge patterns P+,H0,P+,H0,P0,H0,P0, P+,H0,P0,H0,P0,H0,P0, P+,H0,P0,H0
[19] = infectivity class (low / medium / high) of the peptide in the sequence-pattern analysis, Fig. S22-A4, class limits not given
[20] = category 1 or 0 from count rate, key not given
[21] = Feb2021, 1.3 µM value relative to virus only (0 µM)
[22] = Feb2021, n-fold enhancement relative to EF-C
[23] = Feb2021, unrounded values of the 1.3 µM column
[24] = Fig S8 panels A, C, asymmetric log errors
[25] = Fig S8 panels B, D, derived count rate of scattered light
[26] = Feb2021, log10 of infectivity relative to EF-C
[27] = infectivity enhancement relative to EF-C
[28] = infectivity n-fold relative to virus alone
[29] = derived count rate from zeta measurement, mean
[30] = infectivity enhancement relative to EF-C (=1), Feb2021 run
[31] = infectivity n-fold relative to virus only, Feb2021 run
[32] = log10 of infectivity relative to EF-C, Feb2021 run

Row | Substance | Zeta Pot. / mV [1] [mV] | Zeta category ( +1 = if > 4 mV;-1 = if < -4 mV; 0 = -4mV to 4 mV) [1] | Zeta Pot. / mV ([1]; mean, Std Zeta in next column) [mV] | Zeta Pot. / mV ([1]; mean, Std in separate column) [mV] | Zeta-pot. / mV [1] [mV] | Zeta Count Rate Category ([2]; category 1 / 0, no key given) | Zeta Count Rate / kcps [2, 7] [kcps] | Zeta Count Rate / kcps [2, 8] [kcps] | Zeta Count Rate / kcps [2, 9] [kcps] | Log10 of Rel to EFC (Feb2021) [3, 10] | Absolute Infectivity / RLU /s (Feb2021) [3, 11] [RLU /s] | n-fold to virus (Feb2021) [3, 13] | Rel-to EFC (Feb-2021) [3, 14] | infectivity [3, 18] | Log10 Inf. rel. to EF-C [3] | FTIR ß-sheet content/ % ([4]; ATR-FT-IR) | Zeta category ( +1 = if > 4 mV;-1 = if < -4 mV; 0 = -4mV to 4 mV) ([1]; category from zeta potential) | Zeta Count Rate Category [2, 20] | Rel-to EFC (Feb-2021) [3, 22] | FTIR ß-sheet content/ % [4] [%] | also measured
1 | KFKFQFW [TM71] | 6.49 | 1 (+1 = if > 4 mV) | 6.49 | 6.49 | 6.49 | 1 | 121.9 | 121.9 | 121.9 | -0.7899 | 4953 | 6.817 | 0.1622 | medium | -0.7899 | 0% | – | – | – | – | Zeta category ( +1 = if > 4 mV;-1 = if < -4 mV; 0 = -4mV to 4 mV) [1, 5]: 1 (+1 = if > 4 mV); Zeta Count Rate Category [2, 6]: 1; Rel-to EFC (Feb-2021) [3, 12]: 0.1622; n-fold to virus (Feb2021) [3, 15]: 6.817; Log10 of Rel to EFC (Feb2021) [3, 16]: -0.7899; Rel-to EFC (Feb-2021) [3, 17]: 0.1622
2 | KIKIKIKIYYYY [JR7] | – | – | 13.3 | – | 13.3 | – | – | 9918 | – | 0.1402 | – | – | – | – | 0.1402 | 0% | – | – | – | – | Zeta category ( +1 = if > 4 mV;-1 = if < -4 mV; 0 = -4mV to 4 mV) [1, 5]: 1 (+1 = if > 4 mV); Zeta Count Rate Category [2, 6]: 1; Rel-to EFC (Feb-2021) [3, 12]: 1.381; infectivity [3, 19]: high
3 | KIKIQI [JJA4] | – | -1 (-1 = if < -4 mV) | -5.63 | -5.63 | -5.63 | – | – | 108.3 | 108.3 | -1.169 | – | – | 0.06771 | low | -1.169 | 39% and 38.6% | -1 (-1 = if < -4 mV) | 1 | 0.06771 | 38.6 | Zeta Count Rate Category ([2]; category 1/0, no key printed): 1; n-fold to virus (Feb2021) [3, 21]: 2.845; Absolute Infectivity / RLU /s (Feb2021) [3, 23]: 550 RLU /s; n-fold to virus (Feb2021) [3, 15]: 2.845; Log10 of Rel to EFC (Feb2021) [3, 16]: -1.169; Rel-to EFC (Feb-2021) [3, 17]: 0.06771
4 | KIKIQIC [TM112 / CN11] | 19.93 | 1 (+1 = if > 4 mV) | 19.93 | – | 19.93 | 1 | 980.7 | 980.7 | – | -0.2164 | 9447 | 25.53 | 0.6076 | medium | -0.2164 | 53% and 52.93% | 1 (+1 = if > 4 mV) | 1 | 0.6076 | – | Zeta category ( +1 = if > 4 mV;-1 = if < -4 mV; 0 = -4mV to 4 mV) [1, 5]: 1 (+1 = if > 4 mV); Log Count Rate [2, 24]: 2.992; Log Count Rate ([2]; Fig S8 panels B, D): 2.992; Count Rate [2, 25]: 980.67; Zeta Count Rate Category [2, 6]: 1; Rel-to EFC (Feb-2021) [3, 12]: 0.6076; Log10 of Rel to EFC (Feb2021) [3, 26]: -0.2164; Rel-to EFC [3, 27]: 0.6076; n-fold to virus [3, 28]: 25.53
5 | KIKIQINM [JGB2] | – | 1 (+1 = if > 4 mV) | 8.51 | 8.51 | 8.51 | – | – | 262.1 | 262.1 | -0.4404 | – | – | 0.3627 | medium | -0.4404 | 41% | 1 (+1 = if > 4 mV) | 1 | 0.3627 | 41 | Zeta Count Rate Category ([2]; category 1/0, no key printed): 1; n-fold to virus (Feb2021) [3, 21]: 15.24; Absolute Infectivity / RLU /s (Feb2021) [3, 23]: 2947 RLU /s; n-fold to virus (Feb2021) [3, 15]: 15.24; Log10 of Rel to EFC (Feb2021) [3, 16]: -0.4404; Rel-to EFC (Feb-2021) [3, 17]: 0.3627
6 | KIKIQINMWQ [JG1] | – | 1 (+1 = if > 4 mV) | 14.87 | 14.87 | 14.87 | – | – | 2196 | 2196 | -0.5276 | – | – | 0.2968 | medium | -0.5276 | 42% and 42.41% | 1 (+1 = if > 4 mV) | 1 | 0.2968 | 42.41 | Zeta category ( +1 = if > 4 mV;-1 = if < -4 mV; 0 = -4mV to 4 mV) ([1]; FigS26): 1 (+1 = if > 4 mV); Zeta Count Rate Category ([2]; category 1/0, no key printed): 1; n-fold to virus (Feb2021) [3, 21]: 12.47; Log10 of Rel to EFC (Feb2021) [3, 26]: -0.5276; Absolute Infectivity / RLU /s (Feb2021) [3, 23]: 6650 RLU /s; n-fold to virus (Feb2021) [3, 15]: 12.47; Log10 of Rel to EFC (Feb2021) [3, 16]: -0.5276; Rel-to EFC (Feb-2021) [3, 17]: 0.2968
7 | KIKQII [msis21] | -12.67 | -1 (-1 = if < -4 mV) | -12.67 | -12.67 | -12.67 | 1 | 122 | 122 | – | -2.308 | 100 | 0.2069 | 0.004924 | – | -2.308 | 39% and 38.67% | -1 (-1 = if < -4 mV) | 1 | 0.004924 | 38.67 | Zeta Count Rate / kcps [2, 29]: 122 kcps; Zeta Count Rate Category ([2]; key not given): 1; infectivity [3, 19]: low; Rel-to EFC (Feb-2021) [3, 30]: 0.004924; n-fold to virus (Feb2021) [3, 31]: 0.2069; Log10 of Rel to EFC (Feb2021) [3, 32]: -2.308
8 | KIKQIINM [JGA2] | – | 1 (+1 = if > 4 mV) | 16.3 | 16.3 | 16.3 | – | – | 2481 | – | -0.3458 | – | – | – | medium | -0.3458 | 44% | 1 (+1 = if > 4 mV) | 1 | 0.451 | 44 | Zeta Count Rate / kcps [2, 29]: 2481 kcps; Zeta Count Rate Category ([2]; key not given): 1; Rel-to EFC (Feb-2021) [3, 30]: 0.451; n-fold to virus (Feb2021) [3, 31]: 18.95; Log10 of Rel to EFC (Feb2021) [3, 32]: -0.3458
9 | KIKQIINMWQ [JG2] | 15.37 | 1 (+1 = if > 4 mV) | 15.37 | 15.37 | 15.37 | 1 | 615.5 | 615.5 | – | -0.4604 | 9363 | 14.55 | 0.3464 | medium | -0.4604 | 41% and 40.68% | 1 (+1 = if > 4 mV) | 1 | 0.3464 | 40.68 | Zeta category ( +1 = if > 4 mV;-1 = if < -4 mV; 0 = -4mV to 4 mV) ([1]; FigS26): 1 (+1 = if > 4 mV); Log Count Rate [2, 24]: 2.789; Log Count Rate ([2]; Fig S8 panels B, D): 2.789; Count Rate [2, 25]: 615.53; Zeta Count Rate / kcps [2, 29]: 615.5 kcps; Zeta Count Rate Category ([2]; key not given): 1; Rel-to EFC [3, 27]: 0.3464; n-fold to virus [3, 28]: 14.5544; Rel-to EFC (Feb-2021) [3, 30]: 0.3464; n-fold to virus (Feb2021) [3, 31]: 14.55; Log10 of Rel to EFC (Feb2021) [3, 32]: -0.4604
